# Source: patent US10005733B2, “N-(4-hydroxy-4-methyl-cyclohexyl)-4-phenyl-benzenesulfonamide and N-(4-hydroxy-4-methyl-cyclohexyl)-4-(2-pyridyl)-benzenesulfonamide compounds and their therapeutic use” (PIMCO 2664 LIMITED, priority 2014, dated 2018)
# Key:
# CYP2C19 = molecular target: T1, CYP2C19 (Homo sapiens, UniProt P33261); experiment: Human Cytochrome P450 Inhibition Assay (Bactosomes), CYP2C19; type: in vitro ADME; details: recombinant Bactosomes, probe substrate, 10 minutes at 37° C.
# T1 construct: purchased Cypex Ltd, Dundee, Scotland UK
# Protocol: (§1) The ability of test compounds to inhibit five of the most relevant cytochrome P450 enzymes was measured by determination of the activity of cytochrome P450 enzymes in recombinant cytochrome preparations, called Bactosomes (Cypex Ltd, Dundee, Scotland UK DD2 1NH), in the presence of a specific probe substrate. Bactosomes are a highly efficient and cost-effective source of recombinant CYP450s which have a higher specific activity of enzyme compared to other sources, such as liver microsomes. […] The following CYP450 isoforms were assayed: CYP1A2, CYP2C9, CYP2C19, CYP2D6 and CYP3A4. The study of CYP450 inhibition potential in Bactosomes is accepted as a valuable model permitting rapid prediction of potential drug-drug interactions in vivo (see, e.g., Weaver et al., 2003).
# (§2) Bactosomes were obtained from a commercial source (Cypex, Scotland, UK). Test compounds were incubated with Bactosomes at 6 concentrations. Samples were incubated for 10 minutes, after which the reaction was stopped and the samples analysed by LC-MS/MS Multiple Reaction Monitoring (MRM) for the presence/amount of substrate probe.
# (§3) CYP450 enzymes (final protein 75 pmol/mL for CYP1A2; 12.5 pmol/mL for CYP2C19; and 25 pmol/mL for CYP2C9, 2D6 and 3A4), 0.1 M phosphate buffer pH 7.4, probe and test compound (final concentration 50, 15.8, 5, 1.58, 0.5 and 0.158 μM; diluted from 10 mM stock solution to give a final DMSO concentration of 1%) were pre-incubated at 37° C. for 5 minutes. The reaction was initiated by the addition of 20 μL of 10 mM NADPH in phosphate buffer. The final incubation volume was 200 μL. The following control inhibitors were used for each CYP450 inhibition assay: CYP1A2: α-naphthoflavone; CYP2C9: sulfaphenazole; CYP2C19: tranylcypromine; CYP2D6: quinidine; CYP3A4: ketoconazole.
# (§4) Each compound was incubated for 10 minutes at 37° C. The reactions were stopped by the addition of methanol (final composition 1:1, aqueous: methanol). The incubation plates were shaken, chilled at […] for 2 hours, and centrifuged at 3500 rpm for 15 minutes at 4° C. to precipitate the protein.
# (§5) IC50 values were determined by linear transformation within Microsoft Excel.
# CYP2D6 = molecular target: T2, CYP2D6 (Homo sapiens, UniProt P10635); experiment: Human Cytochrome P450 Inhibition Assay (Bactosomes), CYP2D6; type: in vitro ADME; details: recombinant Bactosomes, probe substrate, 10 minutes at 37° C.
# T2 construct: purchased Cypex Ltd, Dundee, Scotland UK
# Protocol: as §1, §2, §3, §4, §5
# CYP2C9 = molecular target: T3, CYP2C9 (Homo sapiens, UniProt P11712); experiment: Human Cytochrome P450 Inhibition Assay (Bactosomes), CYP2C9; type: in vitro ADME; details: recombinant Bactosomes, probe substrate, 10 minutes at 37° C.
# T3 construct: purchased Cypex Ltd, Dundee, Scotland UK
# Protocol: as §1, §2, §3, §4, §5
# CYP3A4 = molecular target: T4, CYP3A4 (Homo sapiens, UniProt P08684); experiment: Human Cytochrome P450 Inhibition Assay (Bactosomes), CYP3A4; type: in vitro ADME; details: recombinant Bactosomes, probe substrate, 10 minutes at 37° C.
# T4 construct: purchased Cypex Ltd, Dundee, Scotland UK
# Protocol: as §1, §2, §3, §4, §5
# hERG ion channel = molecular target: T5, hERG ion channel (Homo sapiens, UniProt Q12809); experiment: hERG Ion Channel Assay (Q-patch, hERG-CHO cells); type: cell-based; details: CHO cells stably transfected with hERG (hERG-CHO), pH 7.4, hERG tail current
# T5 construct: expressed in transfected cells; host or cells: Chinese Hamster Ovary cells (hERG-CHO)
# Protocol: The activity of the compounds against the hERG ion channel was tested. The assay was conducted using the automated path-clamp, Q-patch method using stably transfected Chinese Hamster Ovary cells (hERG-CHO). hERG-CHO cells were cultured in F-12 Kaighn's Nutrient Mixture medium (Invitrogen)+10% FBS at 37° C. for 1-3 days. Cells were kept at 30° C. for 24 to 48 hours prior to patch clamping in order to increase the hERG current amplitude. Subsequently, the cells were harvested by trypsinisation, and kept in Serum Free Medium (SFM) in the Q-patch cell preparation state for up to 6 hours at room temperature before being washed and re-suspended in extracellular solution and applied to the patch clamp sites for data recording.
# Patch-clamp voltage protocol: After whole cell configuration was achieved, the cell was held at −80 mV. A 50 millisecond pulse to −40 mV was delivered to measure the leaking current, which was subtracted from the tail current on-line. Then the cell was depolarized to +20 mV for 2 seconds, followed by a one second pulse to −40 mV to reveal hERG tail current. This paradigm was delivered once every 5 seconds to monitor the current amplitude.
# Extracellular solution: 137 mM NaCl, 4 mM KCl, 1.8 mM CaCl2, 1 mM MgCl2, 10 mM D(+)-glucose, 10 mM HePES buffer (pH adjusted to 7.4 with NaOH).
# After the whole cell configuration was achieved, the extracellular solution (control) was applied first and the cell was stabilized for 2 minutes in extracellular solution. The test compound was then applied from low concentrations to high concentrations cumulatively. The cell was incubated with each test concentration for 5 minutes. During each incubation, the cell was repetitively stimulated using the voltage protocol described above, and the tail current amplitude was continuously monitored.
# The degree of inhibition (%) was obtained by measuring the tail current amplitude, induced by a one second test pulse to −40 mV after a two second pulse to +20 mV, before and after incubation with the test compound. The difference in current was normalized to control and multiplied by 100 in order to obtain the percent inhibition.
# Concentration (log) response curves were fitted to a logistic equation (three parameters assuming complete block of the current at very high test compound concentrations) to generate estimates of the 50% inhibitory concentration (IC50). The concentration-response relationship of each compound was constructed from the percentage reductions of current amplitude by sequential concentrations.
# T5 sequence (Q12809 whole entry): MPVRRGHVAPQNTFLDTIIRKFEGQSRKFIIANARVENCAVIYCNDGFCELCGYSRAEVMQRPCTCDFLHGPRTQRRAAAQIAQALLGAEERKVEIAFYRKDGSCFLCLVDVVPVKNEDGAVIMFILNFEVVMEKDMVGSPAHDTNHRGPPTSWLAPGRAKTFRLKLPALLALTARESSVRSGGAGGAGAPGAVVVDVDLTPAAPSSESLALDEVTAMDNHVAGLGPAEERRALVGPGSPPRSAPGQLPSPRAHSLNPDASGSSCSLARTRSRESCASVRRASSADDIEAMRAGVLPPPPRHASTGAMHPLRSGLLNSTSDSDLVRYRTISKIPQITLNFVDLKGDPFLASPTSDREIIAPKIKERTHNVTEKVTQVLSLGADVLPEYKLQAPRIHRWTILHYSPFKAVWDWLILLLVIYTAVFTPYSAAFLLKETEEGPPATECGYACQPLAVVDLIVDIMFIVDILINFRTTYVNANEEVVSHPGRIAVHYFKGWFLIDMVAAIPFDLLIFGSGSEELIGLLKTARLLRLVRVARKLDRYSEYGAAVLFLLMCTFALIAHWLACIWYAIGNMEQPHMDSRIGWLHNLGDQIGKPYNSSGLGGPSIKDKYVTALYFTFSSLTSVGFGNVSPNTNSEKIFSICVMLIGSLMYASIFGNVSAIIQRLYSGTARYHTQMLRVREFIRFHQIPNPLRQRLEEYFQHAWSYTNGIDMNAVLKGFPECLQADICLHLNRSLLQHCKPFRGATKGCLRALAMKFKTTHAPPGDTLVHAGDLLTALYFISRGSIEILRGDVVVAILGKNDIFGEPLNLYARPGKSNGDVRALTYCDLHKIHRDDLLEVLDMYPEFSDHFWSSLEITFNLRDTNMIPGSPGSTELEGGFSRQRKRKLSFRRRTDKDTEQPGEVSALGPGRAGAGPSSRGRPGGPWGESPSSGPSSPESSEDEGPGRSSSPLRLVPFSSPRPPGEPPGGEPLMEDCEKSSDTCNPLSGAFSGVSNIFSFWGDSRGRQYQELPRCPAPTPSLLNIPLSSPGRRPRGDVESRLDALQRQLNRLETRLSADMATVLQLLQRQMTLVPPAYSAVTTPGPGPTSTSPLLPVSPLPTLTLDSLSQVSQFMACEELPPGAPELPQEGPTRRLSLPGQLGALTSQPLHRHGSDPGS
# T4 sequence (P08684 whole entry): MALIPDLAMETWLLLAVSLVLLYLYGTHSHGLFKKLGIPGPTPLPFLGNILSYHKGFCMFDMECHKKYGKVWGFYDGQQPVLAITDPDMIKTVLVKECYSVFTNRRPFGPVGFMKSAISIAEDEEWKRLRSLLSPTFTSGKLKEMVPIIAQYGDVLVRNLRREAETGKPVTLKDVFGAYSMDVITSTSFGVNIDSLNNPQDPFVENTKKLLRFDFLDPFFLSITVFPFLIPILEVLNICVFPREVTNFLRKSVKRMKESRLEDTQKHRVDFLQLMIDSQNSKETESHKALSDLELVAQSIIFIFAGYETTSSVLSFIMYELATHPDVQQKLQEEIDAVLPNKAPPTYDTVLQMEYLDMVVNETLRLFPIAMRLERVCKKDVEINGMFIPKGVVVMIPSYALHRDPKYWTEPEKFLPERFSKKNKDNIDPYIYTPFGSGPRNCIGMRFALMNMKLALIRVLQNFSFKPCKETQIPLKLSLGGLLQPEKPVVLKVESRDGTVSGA
# T1 sequence (P33261 whole entry): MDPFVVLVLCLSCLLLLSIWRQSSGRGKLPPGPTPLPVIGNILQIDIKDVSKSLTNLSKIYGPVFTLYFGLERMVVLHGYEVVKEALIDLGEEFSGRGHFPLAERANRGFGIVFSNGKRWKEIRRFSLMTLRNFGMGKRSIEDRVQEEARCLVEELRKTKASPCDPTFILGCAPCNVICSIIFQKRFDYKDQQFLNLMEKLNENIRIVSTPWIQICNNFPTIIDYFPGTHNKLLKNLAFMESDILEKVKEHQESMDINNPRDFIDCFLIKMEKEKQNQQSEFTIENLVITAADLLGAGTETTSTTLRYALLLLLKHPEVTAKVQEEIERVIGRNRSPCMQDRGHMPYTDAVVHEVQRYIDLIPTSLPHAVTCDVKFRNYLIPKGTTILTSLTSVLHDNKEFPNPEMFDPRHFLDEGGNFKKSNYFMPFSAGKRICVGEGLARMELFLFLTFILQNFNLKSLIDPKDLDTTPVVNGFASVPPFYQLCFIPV
# T3 sequence (P11712 whole entry): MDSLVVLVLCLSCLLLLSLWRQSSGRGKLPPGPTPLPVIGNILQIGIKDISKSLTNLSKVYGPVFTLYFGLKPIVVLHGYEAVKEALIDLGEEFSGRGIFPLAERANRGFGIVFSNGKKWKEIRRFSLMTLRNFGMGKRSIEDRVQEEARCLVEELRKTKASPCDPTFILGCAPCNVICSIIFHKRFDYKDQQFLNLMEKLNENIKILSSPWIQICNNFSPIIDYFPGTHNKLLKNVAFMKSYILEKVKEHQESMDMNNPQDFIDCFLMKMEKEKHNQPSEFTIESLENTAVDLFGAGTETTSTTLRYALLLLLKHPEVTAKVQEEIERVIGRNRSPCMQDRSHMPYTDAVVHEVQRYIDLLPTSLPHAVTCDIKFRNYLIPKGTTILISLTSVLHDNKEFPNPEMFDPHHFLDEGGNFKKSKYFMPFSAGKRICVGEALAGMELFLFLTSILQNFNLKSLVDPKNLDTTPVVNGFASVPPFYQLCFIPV
# T2 sequence (P10635 whole entry): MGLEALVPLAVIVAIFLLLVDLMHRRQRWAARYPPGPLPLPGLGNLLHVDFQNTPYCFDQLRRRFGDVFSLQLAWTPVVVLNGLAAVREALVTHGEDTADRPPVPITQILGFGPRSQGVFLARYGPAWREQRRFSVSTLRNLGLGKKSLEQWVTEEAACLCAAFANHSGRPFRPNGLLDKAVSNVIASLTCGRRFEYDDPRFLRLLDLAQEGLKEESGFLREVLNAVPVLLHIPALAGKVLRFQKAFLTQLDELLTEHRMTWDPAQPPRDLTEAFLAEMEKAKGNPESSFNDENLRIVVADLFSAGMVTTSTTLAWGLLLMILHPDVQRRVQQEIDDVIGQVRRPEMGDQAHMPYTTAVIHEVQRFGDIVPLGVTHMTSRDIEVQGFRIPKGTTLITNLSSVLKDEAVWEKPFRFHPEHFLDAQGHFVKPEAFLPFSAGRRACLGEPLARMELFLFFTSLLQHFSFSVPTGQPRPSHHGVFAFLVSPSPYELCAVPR
IC50 (CYP2C19) [µM],IC50 (CYP2D6) [µM],IC50 (CYP2C9) [µM],IC50 (CYP3A4) [µM],SMILES,"inhibition at 5 min, 10 µM (hERG ion channel) [%]"
> 50,> 50,34,33,"C[C@]1(O)CC[C@H](NS(=O)(=O)c2ccc(-c3ccc(C#N)cc3Cl)cc2)CC1 [HMC-C-09-A, 2′-Chloro-4′-cyano-N-((1r,4r)-4-hydroxy-4-methylcyclohexyl)-[1,1′-biphenyl]-4-sulfonamide]",57
8.5,> 16,2.4,9.2,"C[C@]1(O)CC[C@@H](NS(=O)(=O)c2ccc(-c3cc(F)c(F)cc3F)cc2)CC1 [HMC-C-10-B, 2′,4′,5′-Trifluoro-N-((1s,4s)-4-hydroxy-4-methylcyclohexyl)-[1,1′-biphenyl]-4-sulfonamide]",
5.1,9.3,2.7,12,"C[C@]1(O)CC[C@H](NS(=O)(=O)c2ccc(-c3ccc(Cl)cc3C#N)c(Cl)c2)CC1 [HMC-C-11-A, 2,4′-Dichloro-2′-cyano-N-((1r,4r)-4-hydroxy-4-methylcyclohexyl)-[1,1′-biphenyl]-4-sulfonamide]",
> 50,> 50,> 50,> 50,"C[C@]1(O)CC[C@H](NS(=O)(=O)c2ccc(-c3ccc(C#N)cc3)c(F)c2)CC1 [HMC-C-07-A, 4′-Cyano-2-fluoro-N-((1r,4r)-4-hydroxy-4-methylcyclohexyl)-[1,1′-biphenyl]-4-sulfonamide]",47
,,,,C[C@]1(O)CC[C@H](NS(=O)(=O)c2ccc(-c3ccc(F)cc3F)cc2)CC1 [ABD900],15.1
30,19,6.7,29,"C[C@]1(O)CC[C@H](NS(=O)(=O)c2ccc(-c3ccc(Cl)cc3C#N)c(F)c2)CC1 [HMC-C-08-A, 4′-Chloro-2′-cyano-2-fluoro-N-((1r,4r)-4-hydroxy-4-methylcyclohexyl)-[1,1′-biphenyl]-4-sulfonamide]",29
> 50,> 50,27,> 50,"C[C@]1(O)CC[C@H](NS(=O)(=O)c2ccc(-c3ncc(Cl)cc3C#N)cc2)CC1 [HMC-N-05-A, 4-(5-Chloro-3-cyanopyridin-2-yl)-N-((1r,4r)-4-hydroxy-4-methylcyclohexyl)benzenesulfonamide]",35
> 25,20.7,9.5,> 25,"O=S(=O)(N[C@H]1CC[C@H](O)CC1)c1ccc(-c2ccc(F)cc2F)cc1 [ABD599, reference compound]",74.9

SMILES,IC50 (CYP2C19) [µM],IC50 (CYP2D6) [µM],IC50 (CYP2C9) [µM],IC50 (CYP3A4) [µM],"inhibition at 5 min, 10 µM (hERG ion channel) [%]"
"Cc1cc(S(=O)(=O)N[C@H]2CC[C@H](O)CC2)ccc1-c1ccc(F)cc1F [ABD735, reference compound]",> 25,> 25,25,> 25,
"C[C@]1(O)CC[C@@H](NS(=O)(=O)c2ccc(-c3ccc(F)cc3F)cc2)CC1 [ABD899, reference compound]",7.3,45.3,3.9,21.6,85.2
"C[C@]1(O)CC[C@@H](NS(=O)(=O)c2ccc(-c3ccc(C#N)cc3)c(F)c2)CC1 [HMC-C-07-B, 4′-Cyano-2-fluoro-N-((1s,4s)-4-hydroxy-4-methylcyclohexyl)-[1,1′-biphenyl]-4-sulfonamide]",> 50,> 50,> 50,> 50,40
